# Assay results taken from PMC4362760, “JAK2^V617F Drives Mcl-1 Expression and Sensitizes Hematologic Cell Lines to Dual Inhibition of JAK2 and Bcl-xL” (PLoS ONE, 2015).
# pKi: −log10 of the molar value.
# Key:
# ACVR1 = target: T1, ACVR1 (Homo sapiens, UniProt Q04771); assay: TR-FRET Kinome ACVR1; assay type: binding; settings: ACVR1 Invitrogen .05(Subs Conc)
# T1 construct: purchased Invitrogen
# Excerpt: (§1) (XLS) Click here for additional data file.
# Akt1 = Akt1 (Homo sapiens, UniProt P31749); assay: TR-FRET Kinome Akt1; assay type: binding; settings: Akt1 Invitrogen .2(Subs Conc)
# Excerpt: as §1
# CAMKK2 = CAMKK2 (Homo sapiens, UniProt Q96RR4); assay: TR-FRET Kinome CAMKK2; assay type: binding; settings: CAMKK2 Invitrogen .03(Subs Conc)
# CAMKK2, sequence (Q96RR4 whole entry): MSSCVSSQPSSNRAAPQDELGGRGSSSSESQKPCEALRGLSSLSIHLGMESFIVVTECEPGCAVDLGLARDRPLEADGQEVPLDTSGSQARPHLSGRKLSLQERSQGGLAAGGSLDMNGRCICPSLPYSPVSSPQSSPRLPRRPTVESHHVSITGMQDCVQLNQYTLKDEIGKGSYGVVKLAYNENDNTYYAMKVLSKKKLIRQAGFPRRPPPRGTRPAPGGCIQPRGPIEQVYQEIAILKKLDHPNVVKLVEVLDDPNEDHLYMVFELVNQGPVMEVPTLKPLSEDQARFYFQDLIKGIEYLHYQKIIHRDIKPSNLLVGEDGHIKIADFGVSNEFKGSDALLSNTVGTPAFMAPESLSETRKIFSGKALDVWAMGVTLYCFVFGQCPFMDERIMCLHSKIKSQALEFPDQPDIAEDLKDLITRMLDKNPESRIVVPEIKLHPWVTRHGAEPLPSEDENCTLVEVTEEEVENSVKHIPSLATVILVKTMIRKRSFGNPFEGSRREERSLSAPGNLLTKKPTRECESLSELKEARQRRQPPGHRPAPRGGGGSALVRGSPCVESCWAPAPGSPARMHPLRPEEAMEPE
# Excerpt: as §1
# IGF1R = IGF1R (Homo sapiens, UniProt P08069); assay: TR-FRET Kinome IGF1R; assay type: binding; settings: IGF1R Invitrogen .05(Subs Conc)
# Excerpt: as §1
# MAP3K10 = MAP3K10 (Homo sapiens, UniProt Q02779); assay: TR-FRET Kinome MAP3K10; assay type: binding; settings: MAP3K10 Invitrogen .005(Subs Conc)
# MAP3K10, sequence (Q02779 whole entry): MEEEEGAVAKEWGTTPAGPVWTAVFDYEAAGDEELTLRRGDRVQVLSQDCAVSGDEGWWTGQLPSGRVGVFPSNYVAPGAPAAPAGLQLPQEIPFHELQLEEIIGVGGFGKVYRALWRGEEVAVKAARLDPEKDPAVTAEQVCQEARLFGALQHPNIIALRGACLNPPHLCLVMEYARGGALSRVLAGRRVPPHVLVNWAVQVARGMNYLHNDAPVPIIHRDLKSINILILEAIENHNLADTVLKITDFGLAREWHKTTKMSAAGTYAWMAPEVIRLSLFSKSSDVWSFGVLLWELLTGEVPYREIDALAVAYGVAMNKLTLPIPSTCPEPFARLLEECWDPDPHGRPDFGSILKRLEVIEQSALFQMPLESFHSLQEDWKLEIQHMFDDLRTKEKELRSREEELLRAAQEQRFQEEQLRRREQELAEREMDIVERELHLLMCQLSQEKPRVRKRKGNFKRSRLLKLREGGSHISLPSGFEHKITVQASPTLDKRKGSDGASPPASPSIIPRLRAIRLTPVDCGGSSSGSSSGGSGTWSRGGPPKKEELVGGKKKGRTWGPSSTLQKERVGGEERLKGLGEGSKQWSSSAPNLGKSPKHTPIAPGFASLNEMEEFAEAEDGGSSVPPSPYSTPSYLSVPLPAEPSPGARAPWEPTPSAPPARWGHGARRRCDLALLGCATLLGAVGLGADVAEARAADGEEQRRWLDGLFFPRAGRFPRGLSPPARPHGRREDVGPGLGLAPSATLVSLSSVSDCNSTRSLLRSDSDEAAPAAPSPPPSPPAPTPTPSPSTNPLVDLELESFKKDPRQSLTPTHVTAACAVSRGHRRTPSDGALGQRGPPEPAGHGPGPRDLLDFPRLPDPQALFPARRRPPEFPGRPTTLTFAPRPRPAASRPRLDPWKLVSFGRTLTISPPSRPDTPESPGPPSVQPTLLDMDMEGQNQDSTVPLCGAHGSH
# Excerpt: as §1
# Rock2 = Rock2 (Homo sapiens, UniProt O75116); assay: TR-FRET Kinome Rock2; assay type: binding; settings: Rock2 Invitrogen .012(Subs Conc)
# Rock2, sequence (O75116 whole entry): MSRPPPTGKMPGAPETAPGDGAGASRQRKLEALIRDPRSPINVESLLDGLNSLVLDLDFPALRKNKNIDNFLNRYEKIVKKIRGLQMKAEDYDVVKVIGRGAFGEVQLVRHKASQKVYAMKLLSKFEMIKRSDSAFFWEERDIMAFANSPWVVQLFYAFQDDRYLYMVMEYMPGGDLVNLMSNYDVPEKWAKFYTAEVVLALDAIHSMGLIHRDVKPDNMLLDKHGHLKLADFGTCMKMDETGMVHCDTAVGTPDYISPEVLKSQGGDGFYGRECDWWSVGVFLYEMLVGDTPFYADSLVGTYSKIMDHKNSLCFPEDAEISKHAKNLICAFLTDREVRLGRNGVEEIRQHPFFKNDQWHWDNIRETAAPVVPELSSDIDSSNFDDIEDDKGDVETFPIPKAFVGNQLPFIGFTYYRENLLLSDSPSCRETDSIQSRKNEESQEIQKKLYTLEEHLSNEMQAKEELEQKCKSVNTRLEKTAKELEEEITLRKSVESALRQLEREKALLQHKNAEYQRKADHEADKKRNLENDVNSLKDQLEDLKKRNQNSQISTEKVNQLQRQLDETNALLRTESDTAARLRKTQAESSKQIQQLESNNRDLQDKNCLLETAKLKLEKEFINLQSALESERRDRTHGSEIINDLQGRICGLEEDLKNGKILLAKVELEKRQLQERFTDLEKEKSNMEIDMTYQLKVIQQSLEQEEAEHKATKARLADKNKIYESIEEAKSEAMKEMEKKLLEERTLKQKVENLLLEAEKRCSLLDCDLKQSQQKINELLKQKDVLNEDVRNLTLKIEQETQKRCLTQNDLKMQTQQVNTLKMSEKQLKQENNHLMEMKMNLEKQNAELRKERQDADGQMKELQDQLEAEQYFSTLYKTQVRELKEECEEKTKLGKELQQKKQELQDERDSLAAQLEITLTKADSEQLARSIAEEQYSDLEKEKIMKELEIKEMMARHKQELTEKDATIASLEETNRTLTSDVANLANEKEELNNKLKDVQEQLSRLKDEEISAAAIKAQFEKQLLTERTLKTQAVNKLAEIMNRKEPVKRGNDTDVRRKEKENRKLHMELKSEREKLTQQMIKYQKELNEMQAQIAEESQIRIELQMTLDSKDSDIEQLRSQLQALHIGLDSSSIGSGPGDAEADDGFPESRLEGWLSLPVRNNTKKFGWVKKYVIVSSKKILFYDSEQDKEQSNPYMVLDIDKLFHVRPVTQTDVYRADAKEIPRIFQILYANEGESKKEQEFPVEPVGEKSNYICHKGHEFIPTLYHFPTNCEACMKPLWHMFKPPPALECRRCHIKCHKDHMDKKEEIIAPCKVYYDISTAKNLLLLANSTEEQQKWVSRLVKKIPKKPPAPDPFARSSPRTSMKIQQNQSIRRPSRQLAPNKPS
# Excerpt: as §1
# STK33 = STK33 (Homo sapiens, UniProt Q9BYT3); assay: TR-FRET Kinome STK33; assay type: binding; settings: STK33 Invitrogen .005(Subs Conc)
# STK33, sequence (Q9BYT3 whole entry): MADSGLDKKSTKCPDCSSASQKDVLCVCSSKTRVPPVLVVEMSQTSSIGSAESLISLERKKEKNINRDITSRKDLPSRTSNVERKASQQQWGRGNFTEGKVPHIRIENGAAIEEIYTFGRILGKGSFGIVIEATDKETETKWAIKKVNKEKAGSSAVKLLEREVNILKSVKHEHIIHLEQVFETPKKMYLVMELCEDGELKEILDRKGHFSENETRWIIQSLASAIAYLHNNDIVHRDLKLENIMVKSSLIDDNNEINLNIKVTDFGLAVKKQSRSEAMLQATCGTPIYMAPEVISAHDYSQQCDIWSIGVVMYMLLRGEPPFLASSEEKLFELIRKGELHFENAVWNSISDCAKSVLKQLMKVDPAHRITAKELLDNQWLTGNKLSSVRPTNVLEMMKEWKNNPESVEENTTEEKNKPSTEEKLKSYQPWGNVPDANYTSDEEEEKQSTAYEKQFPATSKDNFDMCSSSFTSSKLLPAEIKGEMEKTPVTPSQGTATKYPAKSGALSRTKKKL
# Excerpt: as §1
# Syk CatDom = target: T2, Syk CatDom (Homo sapiens, UniProt P43405); assay: TR-FRET Kinome Syk CatDom; assay type: binding; settings: Syk CatDom .006(Subs Conc)
# T2 construct: Syk CatDom
# Excerpt: as §1
# TAOK2 = TAOK2 (Homo sapiens, UniProt Q9UL54); assay: TR-FRET Kinome TAOK2; assay type: binding; settings: TAOK2 Invitrogen .2(Subs Conc)
# TAOK2, sequence (Q9UL54 whole entry): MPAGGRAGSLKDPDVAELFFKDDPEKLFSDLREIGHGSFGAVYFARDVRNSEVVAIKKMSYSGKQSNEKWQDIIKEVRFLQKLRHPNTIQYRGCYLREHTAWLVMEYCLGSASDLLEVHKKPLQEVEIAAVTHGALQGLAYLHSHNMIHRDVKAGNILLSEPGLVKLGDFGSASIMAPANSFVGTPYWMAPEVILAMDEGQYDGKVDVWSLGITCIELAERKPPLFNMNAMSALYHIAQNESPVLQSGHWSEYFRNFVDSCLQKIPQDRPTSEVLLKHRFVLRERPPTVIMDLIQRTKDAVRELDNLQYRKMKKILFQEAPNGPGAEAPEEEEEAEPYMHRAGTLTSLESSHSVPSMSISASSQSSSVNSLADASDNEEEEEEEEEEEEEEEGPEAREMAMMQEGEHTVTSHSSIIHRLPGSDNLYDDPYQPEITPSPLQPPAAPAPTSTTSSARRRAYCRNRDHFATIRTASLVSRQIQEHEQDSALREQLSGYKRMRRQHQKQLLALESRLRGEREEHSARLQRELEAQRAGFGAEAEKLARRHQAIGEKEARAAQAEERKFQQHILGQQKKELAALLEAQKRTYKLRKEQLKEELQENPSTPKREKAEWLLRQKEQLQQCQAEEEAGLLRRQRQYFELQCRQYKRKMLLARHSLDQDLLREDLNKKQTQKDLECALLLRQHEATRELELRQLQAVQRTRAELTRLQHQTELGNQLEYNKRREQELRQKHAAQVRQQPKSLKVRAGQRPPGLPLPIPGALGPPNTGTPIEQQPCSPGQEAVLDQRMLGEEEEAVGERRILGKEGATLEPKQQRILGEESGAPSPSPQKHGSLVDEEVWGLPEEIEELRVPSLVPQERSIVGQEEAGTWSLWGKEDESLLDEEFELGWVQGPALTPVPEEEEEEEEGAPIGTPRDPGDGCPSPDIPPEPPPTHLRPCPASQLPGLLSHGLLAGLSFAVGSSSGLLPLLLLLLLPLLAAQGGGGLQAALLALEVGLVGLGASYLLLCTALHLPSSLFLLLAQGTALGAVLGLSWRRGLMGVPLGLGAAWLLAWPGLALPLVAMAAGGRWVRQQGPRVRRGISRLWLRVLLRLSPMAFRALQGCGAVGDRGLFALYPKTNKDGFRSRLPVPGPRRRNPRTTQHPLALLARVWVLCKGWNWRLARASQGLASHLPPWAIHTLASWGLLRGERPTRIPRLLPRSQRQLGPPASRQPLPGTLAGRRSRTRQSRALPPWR
# Excerpt: as §1
# Bcl-XL mRNA = Bcl-XL mRNA abundance by qPCR in SET-2, UKE-1, HEL, MV4;11, K562 cells; assay type: cell-based; settings: for BCLxl % Control: treated vs non-treated (100.0); for BCLxl Mean QTY: treated, normalised mRNA quantity by qPCR
# Protocol: Fig 1 Regulation of Mcl-1 and Bcl-XL by JAK2 ^V617F. […] Tyrosine phoshorylation of STAT3 and STAT5 was determined by immunoblotting. […] Constitutive tyrosine phosphorylation of STAT3 and STAT5 was determined by immunoblotting. […] Data represent means +/- standard deviation for two independent determinations each performed in triplicate. […] (G) Quantification of the data shown in (F). Data are expressed as the ratio of intensity of Mcl-1/β-actin for each time point. […] Data are means of duplicate samples and are representative of two independent experiments.
# Data represent means +/- standard deviation for two independent determinations each performed in triplicate (data in Summary tab). Individual experimental data in exp 051409 and repeat Mcl1 tabs. (XLS) Click here for additional data file.
# HEL cells = assay: alamarBlue cell viability, JAKi-I/ABT-263 combination, 72 hr, HEL; assay type: cell-based; settings: Jaki-1 0 uM
# Protocol: (§2) Transfection of siRNAs was performed using Lipofectamine RNAiMAX according to the manufacturer’s recommendations. […] Caspase-3 activity was determined using the Caspase-GLO 3/7 Assay (Promega) in parallel with the CellTiter-GLO viability assay (Promega). The data are expressed as Caspase-3/7 activity divided by cell viability.
# (§3) Caspase-3 activity was determined at each time point. Data are from duplicate samples and are representative of at least three independent experiments. (D-G) Cells were treated in combination as indicated, and cell viability was determined after 72 hr. Data are means of duplicate determinations, and are representative of at least three independent experiments. […] Drugs were added simultaneously, and cell viability was determined after 72 hr. The data were then analyzed using the drug-drug interaction model of Bliss additivity^16 to define dose combinations that were synergistic (values >15; red), antagonistic (values <-15; blue), or without effect (-15<values<15; gray). (I) Model of JAK2/Bcl-2 family inhibitor synergy. JAK2^V617F constitutively phosphorylates and activates STAT3/5, thus enforcing expression of the transcriptional target, Mcl-1. Mcl-1 collaborates with Bcl-XL to oppose apoptosis and support viability.
# (§4) Supplementary file pone.0114363.s006.xls: S6 Dataset Cells were treated in combination as indicated, and cell viability was determined using alamarBlue after 72 hr. Data are means of duplicate determinations, and are representative of at least three independent experiments. (XLS) Click here for additional data file.
# K562 cells = assay: alamarBlue cell viability, JAKi-I/ABT-263 combination, 72 hr, K562; assay type: cell-based; settings: K562, 72h, Jaki-1 0 uM
# Protocol: as §2, §3, §4
# [1] = test system: JAK2 V617F-positive and -negative leukemia cell lines; assay: Drug-drug interaction across leukemia lines: ABT-263 dose shift and Bliss additivity matrix, 72-hr cell viability; assay type: cell-based; settings: JAKi-I and ABT-263 0.03-1 μM matrix, 72-hr viability, cell lines carrying JAK2 V617F
# Protocol: as §2, §3
smiles,measurement,setting,value
"CC(C)(C)c1nc2c3cc[nH]c(=O)c3c3cc(F)ccc3c2[nH]1 [JAKi-I, JAK inhibitor I]",pKi,ACVR1,< 5.36
same,pKi,Akt1,< 5.30
same,pKi,CAMKK2,< 5.51
same,pKi,IGF1R,< 5.58
same,pKi,MAP3K10,< 5.51
same,pKi,Rock2,< 5.48
same,pKi,STK33,7.52
same,pKi,Syk CatDom,< 5.49
same,pKi,TAOK2,< 5.18
same,BCLxl % Control,Bcl-XL mRNA; HEL cells,30.4093%
same,BCLxl Mean QTY,Bcl-XL mRNA; HEL cells,76.1
same,BCLxl % Control,Bcl-XL mRNA; K562 cells,93.9154%
same,BCLxl Mean QTY,Bcl-XL mRNA; K562 cells,98.4
same,BCLxl % Control,Bcl-XL mRNA; MV411 cells,101.412%
same,BCLxl Mean QTY,Bcl-XL mRNA; MV411 cells,30.8
same,BCLxl % Control,Bcl-XL mRNA; SET2 cells,19.4966%
same,BCLxl Mean QTY,Bcl-XL mRNA; SET2 cells,62.5
same,Bcl-XL transcript level,"Bcl-XL mRNA; following JAK inhibition, 6 hr",sharply declined
CC1(C)CCC(c2ccc(Cl)cc2)=C(CN2CCN(c3ccc(C(=O)NS(=O)(=O)c4ccc(N[C@H](CCN5CCOCC5)CSc5ccccc5)c(S(=O)(=O)C(F)(F)F)c4)cc3)CC2)C1 [ABT-263],Viability (% Inhibiton),HEL cells; ABT-263 0.003 uM,0%
same,Viability (% Inhibiton),HEL cells; ABT-263 0.01 uM,0%
same,Viability (% Inhibiton),HEL cells; ABT-263 0.03 uM,1%
same,Viability (% Inhibiton),HEL cells; ABT-263 0.1 uM,14%
same,Viability (% Inhibiton),HEL cells; ABT-263 0.3 uM,55%
same,Viability (% Inhibiton),HEL cells; ABT-263 1 uM,95%
same,Viability (% Inhibiton),K562 cells; ABT-263 0.003 uM,0%
same,Viability (% Inhibiton),K562 cells; ABT-263 0.01 uM,0%
same,Viability (% Inhibiton),K562 cells; ABT-263 0.03 uM,0%
same,Viability (% Inhibiton),K562 cells; ABT-263 0.1 uM,0%
same,Viability (% Inhibiton),K562 cells; ABT-263 0.3 uM,10%
same,Viability (% Inhibiton),K562 cells; ABT-263 1 uM,19%
same,drug-drug interaction (Bliss additivity),[1],Synergistic interactions
